Results from US10344330B2, “Glatiramer acetate response biomarker mRNA potency assay” (Mylan Inc., priority 2013, dated 2019).
Several values for one entry are separate records, joined by “and”; a condition that tells them apart may be missing. Equal entries are not always repeated. Where two headings read alike, the source gives them in different places.

Legend:
[1] = tested on: KC (CXCL1) secreted by LN cells; experiment: KC (CXCL1) secretion by GA-stimulated LN cells, MSD 9-plex ELISA (Example II); type: cell-based, mouse; conditions: for KC secretion response ratio (treated cell medium to control DCCM1 medium): 21 hr
[2] = tested on: mIL-10 mRNA in primary LN cells; experiment: mIL-10 mRNA by real-time PCR in stimulated LN cells of immunized (SJL/J×BALB/C)F1 mice (Example I); type: cell-based, mouse
Experimental: Animals were immunized on Day 0.
Each mouse received a total injection volume of […] (250 μg GA). Animals were immunized on Day 0. […] Lymph nodes from immunized mice were removed and isolated.
Expression of cytokine mRNA was quantitatively analyzed 4 and 6 hours after using a Real-Time PCR system (7500, Applied Biosystems).

[3] = tested on: mouse IL-13 mRNA in primary LN cells; experiment: Mouse IL-13 mRNA in LN cells of immunized SJL/J mice stimulated with Copaxone and GMA lots, normalized to Actβ or GAPDH (Example V); type: cell-based; conditions: for 1L-13 mRNA Fold Change: normalized to Actβ; for IL-13 mRNA Fold Change: normalized to GAPDH
Experimental: A real-time polymerase chain reaction method was used to measure the expression of cytokine mRNA in GA-stimulated LN cells from GA-immunized SJL/J mice. Normalization of expression with two different housekeeping genes, GAPDH and β-actin, was tested.
Each group consisted of six female SJL/J mice immunized by injection in all four footpads with a total dose of 250 μg of one lot of GA, or mannitol and no GA. Three Copaxone batches and three GMA batches were used to immunize the mice. CFA was included in both GA and mannitol immunizations. Ten days following immunization, LN cell samples isolated from the immunized mice were each stimulated with a concentration of a Copaxone lot and a GMA lot. A positive control of 2.5 μg/mL ConA treated LN cells and a negative control of 10 μg/mL MBP treated cells were included in each group.
Therefore, the Q-PCR analysis was repeated on the samples, measuring levels of IL-2, IL-4, IL-5, and IL-13, using both GAPDH and β-actin as reference gene.

[4] = tested on: mouse IL-5 mRNA in primary LN cells; experiment: Validation: mouse IL-5 mRNA by real-time PCR in LN cells of GA-immunized SJL/J mice (Example IV); type: cell-based; conditions: for induction of IL-5 mRNA: 20 μg/mL GA, 6 hours; for IL-5 mRNA Fold Change: normalized to GAPDH
Experimental: (§1) Three experiments were conducted using one batch of GA (Mylan GMA). The primary LN cells were stimulated by incubation with 6 concentrations (0.3 to 20 μg/mL) of the GA for 6 hours at 37° C. Total RNA was isolated from LN cells stimulated with GA or controls. cDNA was synthesized from the RNA and the mRNA levels of seven mouse cytokines, IL-2, IL-4, IL-5, IL-10, IL-13, interferon (IFN)-γ and tumor necrosis factor (TNF)-α, were quantitatively measured by a real-time PCR method.
(§2) Female SJL/J mice at 8-9 weeks of age were immunized by injection into four footpads using a 1 mL syringe with a 27-G, ½-inch needle. Each mouse received a total injection volume of 0.1 mL of GMA emulsified in CFA (about 10 μL into each of the front footpads and 40 μL into each of the hind footpads). Animals were immunized on Day 0. After injection, animals were placed back in their cages and housed ≤6 animals per cage.
(§3) Immunized animals were sacrificed by cervical dislocation on Day 10 following immunization. […] After centrifugation at about 200×g for 10 minutes at 4° C., the cell pellet was re-suspended in 40 mL of DCCM-1 medium for cell counting. A Trypan blue exclusion method was used to determine the cell density of viable cells in the suspension. After cell counting, the LN cells were suspended in enriched DCCM-1 medium at density of 7.5×10^6 cells/mL. LN cells (0.12 mL) were plated into each well of 96-well tissue culture plates.
(§4) Dilutions of GA (Mylan GMA) were prepared using enriched DCCM-1 medium as the diluent. GA dilutions (0.12 mL) were added in the assigned wells of 96-well tissue culture plates. The same volume of LN cells (0.12 mL) isolated from immunized animals was added to the assigned wells. A positive control and a negative control were always performed in the same assay by treating LN cells with 2.5 μg/mL ConA and 10 μg/mL MBP, respectively. The LN cells with mock stimulation protocols (enriched DCCM-1 medium) were used to monitor the background mRNA level of a cytokine. The plates were incubated at 37° C. in a humidified 5% CO2 incubator for 6 hr.
(§5) At the end of incubation time, culture medium from stimulated cells was removed by aspiration and the cells were lysed using Qiagen or Promega lysis buffer. The lysate was transferred to an RNeasy Mini column (Qiagen) or wells of the SV 96 Binding Plate (Promega) for RNA isolation and cDNA synthesis. All tested samples were run in triplicate.
(§6) The SV 96 Total RNA Isolation System (Promega; Cat. No. Z3505) was used for total RNA isolation. Assay procedures were carried out according to each manufacturer's protocol. RNA samples were stored at −70° C. until use. […] The assay procedure was carried out according to the manufacturer's protocol.
(§7) The plate was centrifuged at 2000 rpm for 2 minutes at 4° C. to spin down the contents and eliminate air bubbles. Samples were prepared and run in a 96-well plate using a Life Technologies Real-Time PCR system (previously Applied Biosystems; Model No. 7500) according to the manufacturer's recommendation. The mix for the reference gene was prepared in the same way using the reference gene primer.
(§8) A relative quantitation method was used to analyze changes in mIL-2, mIL-4, mIL-5, mIL-10, mIL-13, mIFN-γ and TNF-α expression in GA treated samples relative to the untreated control (Enriched DCCM-1 treated) samples using the following program:
(§9) Levels of mouse cytokine amplicons were normalized to an internal probe level (GAPDH) from the same samples. The following equations were used to calculate the relative increase in response to GA stimulation compared to the control sample (Enriched DCCM1 sample): […]

[5] = tested on: mouse IL-2 mRNA in primary LN cells; experiment: Validation: mouse IL-2 mRNA by real-time PCR in LN cells of GA-immunized SJL/J mice, three experiments (Example IV); type: cell-based; conditions: for induction of IL-2 mRNA: 20 μg/mL GA, 6 hours; for IL-2 mRNA Fold Change: normalized to GAPDH
Experimental: as §1, §2, §3, §4, §5, §6, §7, §8, §9

[6] = tested on: mouse IFN-γ mRNA in primary LN cells; experiment: Validation: mouse IFN-γ mRNA by real-time PCR in LN cells of GA-immunized SJL/J mice (Example IV); type: cell-based; conditions: for IFN-γ mRNA Fold Change: normalized to GAPDH
Experimental: as §1, §2, §3, §4, §5, §6, §7, §8, §9

[7] = SJL/J, different concentrations of GA vs unstimulated LN cells
[8] = BALB/cByJ, immunized GA Lower Limb
[9] = C57BL10J, immunized GA Intraplantar
[10] = C57BL10J, immunized GA Lower Limb
[11] = Group 1B (GA + CFA), 4 hours post-stimulation, GA 10, MBP 10, ConA 2.5 μg/mL, reference GAPDH
[12] = Group 1B (GA + CFA), 6 hours post-stimulation, GA 10, MBP 10, ConA 2.5 μg/mL, reference GAPDH
[13] = Group 2B (Mannitol + CFA), 4 hours post-stimulation, GA 10, MBP 10, ConA 2.5 μg/mL, reference GAPDH
[14] = Group 2B (Mannitol + CFA), 6 hours post-stimulation, GA 10, MBP 10, ConA 2.5 μg/mL, reference GAPDH
[15] = SJL/J, MBP 10 μg/mL, all PCR runs

L-glutamic acid polymer with L-alanine, L-lysine and L-tyrosine, acetate (salt) [GA]
KC secretion, dose response to GA (in words) ([1]; cells from any of the three mouse strains): No dose response
mIL-10 mRNA [2]: 1.7 fold change vs control and 1.4 fold change vs control and 1.2 fold change vs control and 0.9 fold change vs control
IL-13 cross-potency ([3]; Copaxone: C/A, GMA: B/D, 5 μg/mL): 74.8%
induction of IL-5 mRNA ([4]; SJL/J, Exp 1): 5.2 fold
induction of IL-5 mRNA ([4]; SJL/J, Exp 2): 5.3 fold
induction of IL-5 mRNA ([4]; SJL/J, Exp 3): 15.2 fold
induction of IL-5 mRNA (in words) [4, 7]: moderate induction
induction of IL-2 mRNA ([5]; SJL/J, Exp 1): 31.7 fold
induction of IL-2 mRNA ([5]; SJL/J, Exp 2): 27.8 fold
induction of IL-2 mRNA ([5]; SJL/J, Exp 3): 42.0 fold
induction of IL-2 mRNA (in words) [5, 7]: robust induction
induction of IFN-γ mRNA (in words) [6, 7]: weak induction
induction of IFN-γ mRNA ([6]; SJL/J, stimulation with 2.5 to 10 μg/mL GA, three experiments): ≥ 2 fold

Concanavalin A [ConA, reference compound]
KC secretion response ratio (treated cell medium to control DCCM1 medium) [1, 8]: 0.90
KC secretion response ratio (treated cell medium to control DCCM1 medium) [1, 9]: 1.55
KC secretion response ratio (treated cell medium to control DCCM1 medium) [1, 10]: 1.28
KC secretion response ratio (treated cell medium to control DCCM1 medium) ([1]; CD-1, immunized GA Lower Limb): 1.65
mIL-10 mRNA [2, 11]: 2.3 fold change vs control
mIL-10 mRNA [2, 12]: 1.2 fold change vs control
mIL-10 mRNA [2, 13]: 1.6 fold change vs control
mIL-10 mRNA [2, 14]: 3.1 fold change vs control
1L-13 mRNA Fold Change ([3]; Group ID 3, 2.5 μg/mL): 15.6 fold
IL-13 mRNA Fold Change ([3]; Group ID 3, 2.5 μg/mL): 27.4 fold
1L-13 mRNA Fold Change ([3]; Group ID 4, 2.5 μg/mL): 20.4 fold
IL-13 mRNA Fold Change ([3]; Group ID 4, 2.5 μg/mL): 34.8 fold
IL-5 mRNA Fold Change ([4]; Experiment 1, 2.5 μg/mL): 22.4 fold
IL-5 mRNA Fold Change ([4]; Experiment 2, 2.5 μg/mL): 11.3 fold
IL-5 mRNA Fold Change ([4]; Experiment 3, 2.5 μg/mL): 31.0 fold
IL-2 mRNA Fold Change ([5]; Experiment 1, 2.5 μg/mL): 147.1 fold
IL-2 mRNA Fold Change ([5]; Experiment 2, 2.5 μg/mL): 72.0 fold
IL-2 mRNA Fold Change ([5]; Experiment 3, 2.5 μg/mL): 188.6 fold
IFN-γ mRNA Fold Change ([6]; Experiment 1, 2.5 μg/mL): 1.9 fold
IFN-γ mRNA Fold Change ([6]; Experiment 2, 2.5 μg/mL): 1.6 fold
IFN-γ mRNA Fold Change ([6]; Experiment 3, 2.5 μg/mL): 2.6 fold

B1: MBP: myelin basic protein, a negative control (protein, UniProt P02686 1-304, looked up)
Myelin basic protein: MGNHAGKRELNAEKASTNSETNRGESEKKRNLGELSRTTSEDNEVFGEADANQNNGTSSQDTAVTDSKRTADPKNAWQDAHPADPGSRPHLIRLFSRDAPGREDNTFKDRPSESDELQTIQEDSAATSESLDVMASQKRPSQRHGSKYLATASTMDHARHGFLPRHRDTGILDSIGRFFGGDRGAPKRGSGKDSHHPARTAHYGSLPQKSHGRTQDENPVVHFFKNIVTPRTPPPSQGKGRGLSLSRFSWGAEGQRPGFGYGGRASDYKSAHKGFKGVDAQGTLSKIFKLGGRDSRSGSPMARR
KC secretion response ratio (treated cell medium to control DCCM1 medium) [1, 8]: 1.02
KC secretion response ratio (treated cell medium to control DCCM1 medium) [1, 9]: 1.00
KC secretion response ratio (treated cell medium to control DCCM1 medium) [1, 10]: 1.04
KC secretion response ratio (treated cell medium to control DCCM1 medium) ([1]; CD-1, immunized GA Lower Limb): 1.08
mIL-10 mRNA [2, 11]: 1.0 fold change vs control
mIL-10 mRNA [2, 12]: 0.6 fold change vs control
mIL-10 mRNA [2, 13]: 1.0 fold change vs control
mIL-10 mRNA [2, 14]: 0.5 fold change vs control
1L-13 mRNA Fold Change ([3]; Group ID 3, 10 μg/mL): 0.7 fold
IL-13 mRNA Fold Change ([3]; Group ID 3, 10 μg/mL): 0.5 fold
1L-13 mRNA Fold Change ([3]; Group ID 4, 10 μg/mL): 1.0 fold
IL-13 mRNA Fold Change ([3]; Group ID 4, 10 μg/mL): 1.2 fold
IL-5 mRNA Fold Change ([4]; Experiment 1, 10 μg/mL): 0.8 fold
IL-5 mRNA Fold Change ([4]; Experiment 2, 10 μg/mL): 0.8 fold
IL-5 mRNA Fold Change ([4]; Experiment 3, 10 μg/mL): 2.6 fold
IL-2 mRNA Fold Change ([5]; Experiment 1, 10 μg/mL): 1.0 fold
IL-2 mRNA Fold Change ([5]; Experiment 2, 10 μg/mL): 0.9 fold
IL-2 mRNA Fold Change ([5]; Experiment 3, 10 μg/mL): 0.8 fold
IL-2 mRNA expression level in response to MBP treatment [5, 15]: ≤ 2 fold
IFN-γ mRNA Fold Change ([6]; Experiment 1, 10 μg/mL): 0.8 fold
IFN-γ mRNA Fold Change ([6]; Experiment 2, 10 μg/mL): 1.3 fold
IFN-γ mRNA Fold Change ([6]; Experiment 3, 10 μg/mL): 1.1 fold
IFN-γ mRNA expression level in response to MBP treatment [6, 15]: ≤ 2 fold
